Our source for the EC50 values is patent US12643882B2, “Inhibitors of human respiratory syncytial virus and metapneumovirus” (priority 2022, dated 2026).

For one assay, the system named is RSV-A2-GFP virus. Description: microbe, parasite or virus in culture. The assay is classed as cell-based, Human Respiratory Syncytial Virus. The procedure, abridged:
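IC50 (GFP-expressing cell counts by Acumen imaging) and CC50 (same-well CellTiter-Glo) were obtained by 4-parameter logistic fitting. Compounds were tested in 10-point 3-fold series for 96 h at 37° C, 5% CO2. Thawed Calu-1 ARF cells were infected at MOI 1.2 with GFP-reporter RSV-A2 in 2% FBS DMEM.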

A further assay deals with hMPV-GFP virus. Description: microbe, parasite or virus in culture. The assay is classed as cell-based, human metapneumovirus. Put shortly: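 Antiviral IC50 was derived from imaging counts of GFP-expressing cells, with CC50 from a same-well CellTiter-Glo read, both by 4-parameter logistic fitting. VERO cells plus hMPV-GFP (MOI 1.25) were exposed 48 h at 37 °C to 10-point 3-fold compound dilutions (typical final 40,300–2 nM).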

The mark [1] stands for this setting: human respiratory syncytial virus, Calu-1, 96 h, read-out: RSV EC50, Calu-1 cells infected with RSV-A2-GFP, 96 hrs, GFP-expressing cells counted.
[2] abbreviates: human metapneumovirus, Vero, 48 h, read-out: hMPV EC50, VERO cells infected with hMPV-GFP, 48 hrs, GFP-expressing cells counted.
Setting [3] is: Calu-1 cells infected with RSV-A2-GFP, 96 hrs, GFP-expressing cells counted, read-out: RSV EC50.
The mark [4] stands for this setting: VERO cells infected with hMPV-GFP, 48 hrs, GFP-expressing cells counted, read-out: hMPV EC50.

pEC50: −log10 of the molar value. Read-outs that look alike come from different tables or passages of the source.

Usually pEC50 stands for the EC50 on a negative log10 scale, so that one unit is a factor of ten. `Cc1nn(-c2ncccn2)cc1C(=O)N1C[C@@H]2[C@H](C1)[C@H]2Oc1cc(C(C)(C)N)cc(-n2ncc3c(Cl)cccc32)n1` [Example 94, ((1R,5S,6s)-6-((4-(2-aminopropan-2-yl)-6-(4-chloro-1H-indazol-1-yl)pyridin-2-yl)oxy)-3-azabicyclo[3.1.0]hexan-3-yl)(3-methyl-1-(pyrimidin-2-yl)-1H-pyrazol-4-yl)methanone]: the pEC50 in the assay with RSV-A2-GFP virus (setting [1]) is over 8.00; in the assay with hMPV-GFP virus (setting [2]) it was under 7.00.

Turning to `CC(C)(N)c1cc(O[C@H]2[C@@H]3CN(C(=O)c4cn(-c5ncccn5)nc4CO)C[C@@H]32)nc(-c2ccc(F)c(F)c2)c1` [Example 95, ((1R,5S,6s)-6-((4-(2-aminopropan-2-yl)-6-(3,4-difluorophenyl)pyridin-2-yl)oxy)-3-azabicyclo[3.1.0]hexan-3-yl)(3-(hydroxymethyl)-1-(pyrimidin-2-yl)-1H-pyrazol-4-yl)methanone], the pEC50 was over 8.00 in the assay with RSV-A2-GFP virus (setting [1]) and under 7.00 in the assay with hMPV-GFP virus (setting [2]).

On to `Cc1nc(-c2ncccn2)sc1C(=O)N1C[C@@H]2[C@H](C1)[C@H]2Oc1cc(C(C)(C)N)cc(-c2ccc(F)cc2F)n1` [Example 97, ((1R,5S,6s)-6-((4-(2-aminopropan-2-yl)-6-(2,4-difluorophenyl)pyridin-2-yl)oxy)-3-azabicyclo[3.1.0]hexan-3-yl)(4-methyl-2-(pyrimidin-2-yl)thiazol-5-yl)methanone], for which the pEC50 was over 8.00 in the assay on RSV-A2-GFP virus (setting [1]) and 7.00 to 8.00 with hMPV-GFP virus (setting [2]).

Take `Cn1nc(-c2ncccn2)cc1C(=O)N1C[C@@H]2[C@H](C1)[C@H]2Oc1cc(C(C)(C)N)cc(-c2ccc3c(c2)CC3(F)F)n1` [Example 98, ((1R,5S,6s)-6-((4-(2-aminopropan-2-yl)-6-(7,7-difluorobicyclo[4.2.0]octa-1(6),2,4-trien-3-yl)pyridin-2-yl)oxy)-3-azabicyclo[3.1.0]hexan-3-yl)(1-methyl-3-(pyrimidin-2-yl)-1H-pyrazol-5-yl)methanone]: the negative-log EC50 (pEC50) was over 8.00 in the assay with RSV-A2-GFP virus (setting [3]) and under 7.00 in the assay with hMPV-GFP virus (setting [4]).

With `Cc1nn(-c2ncccn2)cc1C(=O)N1C[C@@H]2[C@H](C1)[C@H]2Oc1cc(C(C)(C)N)cc(-c2ccc3c(c2)CC3(F)F)n1` [Example 99, ((1R,5S,6s)-6-((4-(2-aminopropan-2-yl)-6-(7,7-difluorobicyclo[4.2.0]octa-1(6),2,4-trien-3-yl)pyridin-2-yl)oxy)-3-azabicyclo[3.1.0]hexan-3-yl)(3-methyl-1-(pyrimidin-2-yl)-1H-pyrazol-4-yl)methanone], the negative logarithm of the EC50 (pEC50) with RSV-A2-GFP virus (setting [3]) is over 8.00; with hMPV-GFP virus (setting [4]) it was under 7.00.

With `Cc1nn(-c2ncccn2)cc1C(=O)N1C[C@@H]2[C@H](C1)[C@H]2Oc1cc(C(C)(C)N)cc(N2CCC(C)(C)CC2)n1` [Example 100, ((1R,5S,6s)-6-((4-(2-aminopropan-2-yl)-6-(4,4-dimethylpiperidin-1-yl)pyridin-2-yl)oxy)-3-azabicyclo[3.1.0]hexan-3-yl)(3-methyl-1-(pyrimidin-2-yl)-1H-pyrazol-4-yl)methanone], the pEC50 in the assay with RSV-A2-GFP virus (setting [3]) is over 8.00; in the assay on hMPV-GFP virus (setting [4]), under 7.00.

In the case of `CC1(C)CCN(c2cc(C(C)(C)N)cc(O[C@H]3[C@@H]4CN(C(=O)c5cn(-c6ncccn6)nc5C(F)F)C[C@@H]43)n2)CC1` [Example 101, ((1R,5S,6s)-6-((4-(2-aminopropan-2-yl)-6-(4,4-dimethylpiperidin-1-yl)pyridin-2-yl)oxy)-3-azabicyclo[3.1.0]hexan-3-yl)(3-(difluoromethyl)-1-(pyrimidin-2-yl)-1H-pyrazol-4-yl)methanone], the pEC50 was over 8.00 in the assay with RSV-A2-GFP virus (setting [3]) and under 7.00 in the assay with hMPV-GFP virus (setting [4]).

On to `Cc1nn(-c2ncccn2)cc1C(=O)N1C[C@@H]2[C@H](C1)[C@H]2Oc1cc(C(C)(C)N)cc(N2CCC(C(F)(F)F)CC2)n1` [Example 102, ((1R,5S,6s)-6-((4-(2-aminopropan-2-yl)-6-(4-(trifluoromethyl)piperidin-1-yl)pyridin-2-yl)oxy)-3-azabicyclo[3.1.0]hexan-3-yl)(3-methyl-1-(pyrimidin-2-yl)-1H-pyrazol-4-yl)methanone], for which the negative logarithm of the EC50 (pEC50) in the assay with RSV-A2-GFP virus (setting [3]) is over 8.00; with hMPV-GFP virus (setting [4]) it was under 7.00.

Turning to `Cc1nc(-c2ncccn2)sc1C(=O)N1C[C@@H]2[C@H](C1)[C@H]2Oc1cc(-c2ccc(F)cc2)nc(C(C)(C)N)c1` [Example 114, ((1R,5S,6s)-6-((2-(2-aminopropan-2-yl)-6-(4-fluorophenyl)pyridin-4-yl)oxy)-3-azabicyclo[3.1.0]hexan-3-yl)(4-methyl-2-(pyrimidin-2-yl)thiazol-5-yl)methanone], the negative logarithm of the EC50 (pEC50) is over 8.00 in the assay on RSV-A2-GFP virus (setting [1]) and under 7.00 with hMPV-GFP virus (setting [2]).

`Cc1nc(-c2ncccn2)sc1C(=O)N1C[C@@H]2[C@H](C1)[C@H]2Oc1cc(-c2ccc(F)cc2)cc(C(C)(C)N)n1` [Example 115, ((1R,5S,6s)-6-((6-(2-aminopropan-2-yl)-4-(4-fluorophenyl)pyridin-2-yl)oxy)-3-azabicyclo[3.1.0]hexan-3-yl)(4-methyl-2-(pyrimidin-2-yl)thiazol-5-yl)methanone]: the pEC50 in the assay with RSV-A2-GFP virus (setting [1]) was over 8.00; with hMPV-GFP virus (setting [2]), under 7.00.

Regarding `CCC(N)c1cc(O[C@H]2[C@@H]3CN(C(=O)c4cn(-c5ncccn5)nc4C)C[C@@H]32)nc(-c2ccc(F)cc2)c1` (stereo partly drawn) [Example 117A, ent-((1R,5S,6s)-6-((4-(1-aminopropyl)-6-(4-fluorophenyl)pyridin-2-yl)oxy)-3-azabicyclo[3.1.0]hexan-3-yl)(3-methyl-1-(pyrimidin-2-yl)-1H-pyrazol-4-yl)methanone], the negative-log EC50 (pEC50) in the assay with RSV-A2-GFP virus (setting [3]) was over 8.00; in the assay on hMPV-GFP virus (setting [4]) it was under 7.00.

Take `Cc1nn(-c2ncccn2)cc1C(=O)N1C[C@@H]2[C@H](C1)[C@H]2Oc1cc(C(N)C(C)C)cc(-c2ccc(F)cc2)n1` (stereo partly drawn) [Example 118A, ent-((1R,5S,6s)-6-((4-(1-amino-2-methylpropyl)-6-(4-fluorophenyl)pyridin-2-yl)oxy)-3-azabicyclo[3.1.0]hexan-3-yl)(3-methyl-1-(pyrimidin-2-yl)-1H-pyrazol-4-yl)methanone]: the pEC50 is over 8.00 with RSV-A2-GFP virus (setting [3]) and under 7.00 with hMPV-GFP virus (setting [4]).

`Cc1nn(-c2ncccn2)cc1C(=O)N1C[C@@H]2[C@H](C1)[C@H]2Oc1cc(C(C)(C)N)c(F)c(-c2ccc(F)cc2)n1` [Example 119, ((1R,5S,6s)-6-((4-(2-aminopropan-2-yl)-5-fluoro-6-(4-fluorophenyl)pyridin-2-yl)oxy)-3-azabicyclo[3.1.0]hexan-3-yl)(3-methyl-1-(pyrimidin-2-yl)-1H-pyrazol-4-yl)methanone]: the figures for the negative logarithm of the EC50 (pEC50) in the assay on RSV-A2-GFP virus (setting [1]) and with hMPV-GFP virus (setting [2]) were over 8.00 and under 7.00, respectively.

Take `Cc1nn(-c2ncccn2)cc1C(=O)N1C[C@@H]2[C@H](C1)[C@H]2Oc1cc(C(C)(C)N)c(Cl)c(-c2ccc(F)cc2)n1` [Example 120, ((1R,5S,6s)-6-((4-(2-aminopropan-2-yl)-5-chloro-6-(4-fluorophenyl)pyridin-2-yl)oxy)-3-azabicyclo[3.1.0]hexan-3-yl)(3-methyl-1-(pyrimidin-2-yl)-1H-pyrazol-4-yl)methanone]: the pEC50 was over 8.00 in the assay on RSV-A2-GFP virus (setting [1]) and under 7.00 with hMPV-GFP virus (setting [2]).

Turning to `COc1nn(-c2ncccn2)cc1C(=O)N1C[C@@H]2[C@H](C1)[C@H]2Oc1cc(C(C)(C)N)c(Cl)c(-c2ccc(F)cc2)n1` [Example 121, ((1R,5S,6s)-6-((4-(2-aminopropan-2-yl)-5-chloro-6-(4-fluorophenyl)pyridin-2-yl)oxy)-3-azabicyclo[3.1.0]hexan-3-yl)(3-methoxy-1-(pyrimidin-2-yl)-1H-pyrazol-4-yl)methanone], the results for the negative logarithm of the EC50 (pEC50) in the assay with RSV-A2-GFP virus (setting [3]) and with hMPV-GFP virus (setting [4]) were over 8.00 and under 7.00, respectively.

Turning to `COc1nn(-c2ncccn2)cc1C(=O)N1C[C@@H]2[C@H](C1)[C@H]2Oc1cc(C(C)(C)N)cc(N2CCC(C)(C)CC2)n1` [Example 122, ((1R,5S,6s)-6-((4-(2-aminopropan-2-yl)-6-(4,4-dimethylpiperidin-1-yl)pyridin-2-yl)oxy)-3-azabicyclo[3.1.0]hexan-3-yl)(3-methoxy-1-(pyrimidin-2-yl)-1H-pyrazol-4-yl)methanone], the pEC50 in the assay on RSV-A2-GFP virus (setting [1]) was over 8.00; in the assay with hMPV-GFP virus (setting [2]) it was under 7.00.

Regarding `Cc1nc(-c2ncccn2)sc1C(=O)N1C[C@@H]2[C@H](C1)[C@H]2Oc1cc(C(C)(C)N)cc(N2CCC(C)(C)CC2)n1` [Example 123, ((1R,5S,6s)-6-((4-(2-aminopropan-2-yl)-6-(4,4-dimethylpiperidin-1-yl)pyridin-2-yl)oxy)-3-azabicyclo[3.1.0]hexan-3-yl)(4-methyl-2-(pyrimidin-2-yl)thiazol-5-yl)methanone], the figures for the pEC50 with RSV-A2-GFP virus (setting [3]) and in the assay with hMPV-GFP virus (setting [4]) were over 8.00 and under 7.00, respectively.

For `CCc1nn(-c2ncccn2)cc1C(=O)N1C[C@@H]2[C@H](C1)[C@H]2Oc1cc(C(C)(C)N)cc(N2CCC(C)(C)CC2)n1` [Example 124, ((1R,5S,6s)-6-((4-(2-aminopropan-2-yl)-6-(4,4-dimethylpiperidin-1-yl)pyridin-2-yl)oxy)-3-azabicyclo[3.1.0]hexan-3-yl)(3-ethyl-1-(pyrimidin-2-yl)-1H-pyrazol-4-yl)methanone], the pEC50 in the assay with RSV-A2-GFP virus (setting [3]) is over 8.00; in the assay with hMPV-GFP virus (setting [4]), under 7.00.

Turning to `Cc1nc(-c2ncccn2)sc1C(=O)N1C[C@@H]2[C@H](C1)[C@H]2Oc1cc(C(C)(C)N)cc(N2CCC(C(F)(F)F)CC2)n1` [Example 125, ((1R,5S,6s)-6-((4-(2-aminopropan-2-yl)-6-(4-(trifluoromethyl)piperidin-1-yl)pyridin-2-yl)oxy)-3-azabicyclo[3.1.0]hexan-3-yl)(4-methyl-2-(pyrimidin-2-yl)thiazol-5-yl)methanone], the values for the pEC50 in the assay with RSV-A2-GFP virus (setting [3]) and with hMPV-GFP virus (setting [4]) were over 8.00 and under 7.00, respectively.
